From patent US11795147B2, “Modulators of complex I” (Boehringer Ingelheim International GmbH, priority 2019, dated 2023)

These compounds were tested against Complex I (assay: Assay A: Determination of Complex I mediated ROS-inhibition (CI)). Conditions: read-out: CI IC50; ROS generation by Complex I purified from bovine heart, Amplex Red/horse radish peroxidase readout, 8 point concentration-response.
Type: biochemical
CC(C)Nc1ccc2c(c1)/C(=C1\COCCN1)C(=O)N2[C@H]1CCN(C2COC2)C1 [Compound 69] gave an IC50 of 55 nM. For O=C1/C(=C2/CC3(CN2)COC3)c2cc(NC3CCOC3)ccc2N1C1CCOCC1 (stereo not shown) [Compound 70], the IC50 was 193 nM. CC(Nc1ccc2c(c1)/C(=C1\COCCN1)C(=O)N2C(C)C)c1ccccn1 (stereo not shown) [Compound 71] gave an IC50 of 93 nM. CC(C)N1C(=O)/C(=C2/COCCN2)c2cc(NC3CCC(F)(F)CC3)ccc21 [Compound 72] showed an IC50 of 140 nM. Compound CC(C)N1C(=O)/C(=C2/COCCN2)c2cc(NC3CCOCC3F)ccc21 (stereo not shown) [Compound 73] has an IC50 of 66 nM. Work on CC(C)N1C(=O)/C(=C2/COCCN2)c2cc(NCc3cc[nH]n3)ccc21 [Compound 74] yielded an IC50 of 46 nM. Work on CC(C)N1C(=O)/C(=C2/COCCN2)c2cc(NCC3CCOCC3)ccc21 [Compound 75] yielded an IC50 of 72 nM. CCC(CC)Nc1ccc2c(c1)/C(=C1\COCCN1)C(=O)N2C1CCOCC1 [Compound 76] gave an IC50 of 43 nM. CC(Nc1ccc2c(c1)/C(=C1\COCCN1)C(=O)N2C1CCOCC1)c1ccccn1 (stereo not shown) [Compound 77] gave an IC50 of 22 nM. For O=C1/C(=C2/COCCN2)c2cc(NC3CCC(F)(F)CC3)ccc2N1C1CCOCC1 [Compound 78], the IC50 was 89 nM. CC(Nc1ccc2c(c1)/C(=C1\COCCN1)C(=O)N2C1CCOCC1)c1ccnn1C (stereo not shown) [Compound 79] was tested, and the IC50 was 20 nM. Work on O=C1/C(=C2/COCCN2)c2cc(NC3CCOCC3F)ccc2N1C1CCOCC1 (stereo not shown) [Compound 80] yielded an IC50 of 84 nM. O=C1/C(=C2/COCCN2)c2cc(NCC3CCOCC3)ccc2N1C1CCOCC1 [Compound 81] showed an IC50 of 130 nM. Compound CC(C)Nc1ccc2c(c1)/C(=C1\CCOCCN1)C(=O)N2C(C)C [Compound 82] has an IC50 of 91 nM. Work on Nc1ccc2c(c1)/C(=C1\CCCN1)C(=O)N2C1CCOCC1 [Compound 83] yielded an IC50 of 11 nM. Compound CC1CCC(C)N1c1ccc2c(c1)/C(=C1\COCCN1)C(=O)N2C (stereo not shown) [Compound 84] has an IC50 of 333 nM. With CC1CCN(c2ccc3c(c2)/C(=C2\COCCN2)C(=O)N3C2CCOCC2)CC1 [Compound 85] the IC50 was 69 nM. O=C1/C(=C2/COCCN2)c2cc(N3CCCCC3)ccc2N1C1CCOCC1 [Compound 86] gave an IC50 of 69 nM. Compound CC(C)Nc1ccc2c(c1)/C(=C1\CN(C(C)C)CCN1)C(=O)N2C(C)C [Compound 88] has an IC50 of 68 nM. CC(C)Nc1ccc2c(c1)/C(=C1\COCCN1)C(=O)N2C(C)(C)C [Compound 90] showed an IC50 of 428 nM. In the case of CC(C)N1CCC2(CC1)CN/C(=C1\C(=O)N(C(C)C)c3ccc(N4CCCC4)cc31)CO2 [Compound 91], the IC50 is reported as 242 nM. Compound CC1COC/C(=C2/C(=O)N(C3CCOCC3)c3ccc(N4C(C)CCC4C)cc32)N1 (stereo not shown) [Compound 93] has an IC50 of 24 nM. In the case of CC(C)N1C(=O)/C(=C2/COCCN2)c2cc(NC3CCCC3)ccc21 [Compound 94], the IC50 is reported as 558 nM. With CC(C)C(C)Nc1ccc2c(c1)/C(=C1\COCCN1)C(=O)N2C(C)C (stereo not shown) [Compound 95] the IC50 was 151 nM. Work on CC(C)N1CCC(Nc2ccc3c(c2)/C(=C2\COCCN2)C(=O)N3C(C)C)CC1 [Compound 96] yielded an IC50 of 63 nM. CC(Nc1ccc2c(c1)/C(=C1\COCCN1)C(=O)N2C(C)C)C1CC1 (stereo not shown) [Compound 97] was tested, and the IC50 was 344 nM. In the case of CC(C)N1C(=O)/C(=C2/COCCN2)c2cc(NC3COC3)ccc21 [Compound 98], the IC50 is reported as 187 nM. In the case of COCC(C)Nc1ccc2c(c1)/C(=C1\COCCN1)C(=O)N2C1CCOCC1 (stereo not shown) [Compound 99], the IC50 is reported as 451 nM. Compound CC(Nc1ccc2c(c1)/C(=C1\COCCN1)C(=O)N2C1CCOCC1)c1cccnc1 (stereo not shown) [Compound 100] has an IC50 of 34 nM. Work on CC1CCCC1Nc1ccc2c(c1)/C(=C1\COCCN1)C(=O)N2C1CCOCC1 (stereo not shown) [Compound 102] yielded an IC50 of 109 nM. Work on O=C1/C(=C2/COCCN2)c2cc(NCC3CC3)ccc2N1C1CCOCC1 [Compound 103] yielded an IC50 of 76 nM. CN(C)c1ccc2c(c1)C(=C1NCC3(CCCCC3)CN1)C(=O)N2C [Compound 104] gave an IC50 of 704 nM. With CN(C)c1ccc2c(c1)/C(=C1\CCCCCN1)C(=O)N2C [Compound 105] the IC50 was 64 nM. CN(C)c1ccc2c(c1)/C(=C1/NCCN1c1ccccc1)C(=O)N2C [Compound 106] showed an IC50 of 327 nM. CN1C(=O)/C(=C2/CCOCCN2)c2cc(N3CCCC3)ccc21 [Compound 107] showed an IC50 of 299 nM. For CN(C)c1ccc2c(c1)/C(=C1\CCN(C(=O)OCc3ccccc3)CCN1)C(=O)N2C [Compound 108], the IC50 was 118 nM. CC(C)N1CCN/C(=C2\C(=O)N(C)c3ccc(N4CCCC4)cc32)CC1 [Compound 110] showed an IC50 of 264 nM. CC(=O)N1CCN/C(=C2\C(=O)N(C3CCOCC3)c3ccc(NC(C)C)cc32)C1 [Compound 111] gave an IC50 of 119 nM. With O=C1C(=C2CCOCC2)c2cc(N3CCCC3)ccc2N1C1CCOCC1 [Compound 112] the IC50 was 352 nM. In the case of CC(C)N1C(=O)/C(=C2/CCCCN2)c2cc(N(C3CCC3)C3CCC3)ccc21 [Compound 113], the IC50 is reported as 106 nM. CC(C)Nc1ccc2c(c1)/C(=C1\CN(C3COC3)CCN1)C(=O)N2C(C)C [Compound 114] gave an IC50 of 58 nM. CC(C)Nc1ccc2c(c1)/C(=C1\CCCN1C)C(=O)N2C(C)C [Compound 115] showed an IC50 of 80 nM. Compound CC(C)N1C(=O)C(=C2CCOCC2)c2cc(NC3CCCC3)ccc21 [Compound 116] has an IC50 of 539 nM. Compound O=C1/C(=C2/COCCN2)c2cc(N3CCCC3)ccc2N1C1CCOCC1 [Compound 117] has an IC50 of 738 nM. For COCC(C)N1C(=O)/C(=C2/COCCN2)c2cc(N3CCC(O)C3)ccc21 (stereo not shown) [Compound 119], the IC50 was 422 nM. For O=C1/C(=C2/CCOCCN2)c2cc(NC3CCC3)ccc2N1C1CCOCC1 [Compound 120], the IC50 was 235 nM. O=C1/C(=C2/CCN(C3COC3)CCN2)c2cc(N3CCCC3)ccc2N1C1CCOCC1 [Compound 121] gave an IC50 of 75 nM. CC1CCCC1Nc1ccc2c(c1)/C(=C1\COCCN1)C(=O)N2C(C)C (stereo not shown) [Compound 124] gave an IC50 of 259 nM. Compound CC1OCCC1Nc1ccc2c(c1)/C(=C1\COCCN1)C(=O)N2C(C)C (stereo not shown) [Compound 125] has an IC50 of 50 nM. With CC(Nc1ccc2c(c1)/C(=C1\COCCN1)C(=O)N2C(C)C)c1cncnc1 (stereo not shown) [Compound 126] the IC50 was 85 nM. In the case of CC(C)N1C(=O)/C(=C2/COCCN2)c2cc(NCC3(C)COC3)ccc21 [Compound 127], the IC50 is reported as 82 nM. CC(C)N1C(=O)/C(=C2/CCOCCN2)c2cc(N3C(C)CCC3C)ccc21 (stereo not shown) [Compound 128] showed an IC50 of 44 nM. For CC(C)N1C(=O)/C(=C2/CCOCCN2)c2cc(N3CCCC3)ccc21 [Compound 129], the IC50 was 702 nM. Work on CC(C)N1C(=O)/C(=C2/COCCN2)c2cc(N3CCCC3)ccc21 [Compound 130] yielded an IC50 of 877 nM. In the case of O=C1/C(=C2/COCCN2)c2cc(NC3CCC3)ccc2N1C1CCOCC1 [Compound 132], the IC50 is reported as 55 nM. CC(C)Nc1ccc2c(c1)/C(=C1\CCCCN1)C(=O)N2C(C)C [Compound 133] gave an IC50 of 49 nM. CC(C)Nc1ccc2c(c1)/C(=C1\CN(C3CCOCC3)CCN1)C(=O)N2C(C)C [Compound 134] gave an IC50 of 62 nM. Compound CC(C)Nc1ccc2c(c1)/C(=C1\COCCN1)C(=O)N2C1COC1 [Compound 135] has an IC50 of 82 nM. CCC(CC)Nc1ccc2c(c1)/C(=C1\COCCN1)C(=O)N2C1COC1 [Compound 136] was tested, and the IC50 was 213 nM. With COCC(C)Nc1ccc2c(c1)/C(=C1\COCCN1)C(=O)N2C1COC1 (stereo not shown) [Compound 137] the IC50 was 138 nM. CC(C)Nc1ccc2c(c1)/C(=C1\COC3(CCN(C(C)C)CC3)CN1)C(=O)N2C(C)C [Compound 138] showed an IC50 of 206 nM. CC(C)N1CCC2(CC1)CN/C(=C1\C(=O)N(C(C)C)c3ccc(N4C(C)CCC4C)cc31)CO2 (stereo not shown) [Compound 139] showed an IC50 of 308 nM. In the case of O=C1/C(=C2/CCOCCN2)c2cc(NC3CCOC3)ccc2N1C1CCOCC1 (stereo not shown) [Compound 140], the IC50 is reported as 84 nM. In the case of O=C1/C(=C2/COCCCN2)c2cc(NC3CCOC3)ccc2N1C1CCOCC1 (stereo not shown) [Compound 141], the IC50 is reported as 104 nM. In the case of CC1CCC(C)N1c1ccc2c(c1)/C(=C1\COCCCN1)C(=O)N2C1CCOCC1 (stereo not shown) [Compound 142], the IC50 is reported as 116 nM. For CC(Nc1ccc2c(c1)/C(=C1\COCCN1)C(=O)N2C(C)C)c1ccncc1 (stereo not shown) [Compound 143], the IC50 was 79 nM. With CC(Nc1ccc2c(c1)/C(=C1\COCCN1)C(=O)N2C(C)C)c1nccs1 (stereo not shown) [Compound 144] the IC50 was 49 nM. In the case of CC(C)N1C(=O)/C(=C2/COCCN2)c2cc(NCC(C)(C)C)ccc21 [Compound 145], the IC50 is reported as 183 nM. CC(Nc1ccc2c(c1)/C(=C1\COCCN1)C(=O)N2C1CCOCC1)c1cnccn1 (stereo not shown) [Compound 146] showed an IC50 of 66 nM. With CC(Nc1ccc2c(c1)/C(=C1\COCCN1)C(=O)N2C1CCOCC1)c1cncnc1 (stereo not shown) [Compound 147] the IC50 was 69 nM. CC(Nc1ccc2c(c1)/C(=C1\COCCN1)C(=O)N2C1CCOCC1)C1CCC1 (stereo not shown) [Compound 148] gave an IC50 of 39 nM. COC1COCCC1Nc1ccc2c(c1)/C(=C1\COCCN1)C(=O)N2C1CCOCC1 (stereo not shown) [Compound 149] was tested, and the IC50 was 161 nM. In the case of CN1CCC(Nc2ccc3c(c2)/C(=C2\COCCN2)C(=O)N3C2CCOCC2)CC1 [Compound 150], the IC50 is reported as 48 nM. Work on O=C1/C(=C2/COCCN2)c2cc(NCC3CCOC3)ccc2N1C1CCOCC1 (stereo not shown) [Compound 151] yielded an IC50 of 232 nM. CN1C(=O)/C(=C2/CCN(C(=O)OCc3ccccc3)CCN2)c2cc(N3CCCC3)ccc21 [Compound 152] was tested, and the IC50 was 477 nM. CN1C(=O)/C(=C2/COCCN2)c2cc(NC3CCC3)ccc21 [Compound 154] was tested, and the IC50 was 193 nM. In the case of CN1C(=O)/C(=C2/CCN(C3CCOC3)CCN2)c2cc(N3CCCC3)ccc21 (stereo not shown) [Compound 155], the IC50 is reported as 264 nM. Work on CC1CCC(C)N1c1ccc2c(c1)/C(=C1\COCCN1)C(=O)N2C1CCOCC1 (stereo not shown) [Compound 156] yielded an IC50 of 77 nM. Work on CC(C)N1C(=O)C(=C2CCOCC2)c2cc(N)ccc21 [Compound 157] yielded an IC50 of 691 nM. CC(C)N1C(=O)/C(=C2/CCCCN2)c2cc(N3CCOCC3)ccc21 [Compound 158] gave an IC50 of 243 nM. CC(=O)N1CCN/C(=C2\C(=O)N(C(C)C)c3ccc(NC(C)C)cc32)C1 [Compound 159] gave an IC50 of 120 nM. CC(C)N1C(=O)C(=C2CCOCC2)c2cc(NC3CCOC3)ccc21 (stereo not shown) [Compound 160] gave an IC50 of 829 nM. For CC(C)N1C(=O)/C(=C2/CCCN2C)c2cc(NC3CCC3)ccc21 [Compound 161], the IC50 was 957 nM. CC1CCC(C)N1c1ccc2c(c1)/C(=C1\COCCN1)C(=O)N2C1CCOC1 (stereo not shown) [Compound 162] gave an IC50 of 464 nM. CC(C)Nc1ccc2c(c1)/C(=C1\COCCN1)C(=O)N2C1CCOC1 (stereo not shown) [Compound 163] was tested, and the IC50 was 172 nM.
